Results published in patent publication US11000537B2, “Composition comprising novel ginsenoside” (AMOREPACIFIC CORPORATION, priority 2018, dated 2021).

Experiments:
Type in all cases: cell-based
[1] = test system: pancreatic lipase; test: pancreatic lipase activity inhibition (Pancreatic Lipase Activity Assay Kit)
Protocol: The hepatocyte cell line HepG2 purchased from the International Center for Biological Resources (ATCC) were placed in Dulbecco's Modified Eagle's Medium (Sigma) to which 10% fetal bovine serum (Hyclone) and 1% penicillin/streptomycin (Sigma) were added, and cultured in a 5% CO2 incubator. As a positive control for the cells, Xenical (Sigma), which are used as pancreatic lipase inhibitors and anti-obesity therapeutic agents, and seven types of ginsenosides (GS #01-GS #06, GS #10; 10 μM each) extracted from Ginseng seed were treated for 1 hour. In addition, Pancreatic Lipase Activity Assay Kit (Abcam) was used to observe the inhibition of each lipase activity.

[2] = test system: ACC (acetyl-CoA carboxylase); test: ACC gene expression in HepG2 (qPCR); details: 24 hours
Protocol: (§1) The hepatocyte cell line HepG2 purchased from the International Center for Biological Resources (ATCC) were placed in Dulbecco's Modified Eagle's Medium (Sigma) to which 10% fetal bovine serum (Hyclone) and 1% penicillin/streptomycin (Sigma) were added, and cultured in a 5% CO2 incubator. As a positive control, fenofibrate (FF, Sigma), which is used as an antihyperlipidemic drug, was used, and 7 kinds of ginsenosides (GS #01-GS #06, GS #10; 10 μM each) extracted from Ginseng seed were used for the experiment. After 24 hours of treatment, cells were collected, RNA was extracted using Trizol™ reagent (Thermo Fisher Scientific), and cDNA was synthesized using RevertAid™ 1st strand cDNA synthesis kit (Thermo Fisher Scientific). Bio-Rad's CFX96 real-time quantitative PCR (qPCR) instrument was used to observe the expression of the genes SREBP1c (sterol-regulatory element binding protein 1c), ACC (acetyl-CoA carboxylase) and FAS (Fatty acid synthase), which induces fat synthesis or accumulation.

[3] = test system: SREBP1c (sterol-regulatory element binding protein 1c); test: SREBP1c gene expression in HepG2 (qPCR); details: 24 hours
Protocol: as §1, with “As a positive control, fenofibrate (FF, Sigma), which is used as an antihyperlipidemic drug, was used, and 7 kinds of ginsenosides (GS #01-GS #06, GS #10; 10 μM each) extracted from Ginseng seed were used for the experiment.” left out

[4] = test system: SREBP1a; test: SREBP1a gene expression in HepG2 (qPCR); details: 10 μM, 24 hours, FIG. 30
Protocol: The hepatocyte cell line HepG2 purchased from the International Center for Biological Resources (ATCC) were placed in Dulbecco's Modified Eagle's Medium (Sigma) to which 10% fetal bovine serum (Hyclone) and 1% penicillin/streptomycin (Sigma) were added, and cultured in a 5% CO2 incubator. As a positive control, Simvastatin (Sigma Aldrich; St. Louis, Mo.), which is known as a lipid lowering agent of the HMG-CoA reductase inhibitor family and reduces cholesterol production in the blood, was used. For the experiment, seven types of ginsenoside (GS #01-GS #06, GS #10; 10 μM each) extracted from Ginseng seeds were treated for 24 hours, and the cells were collected. RNA was extracted using Trizol™ reagent (Thermo Fisher Scientific) and cDNA was synthesized using RevertAid™ 1st strand cDNA synthesis kit (Thermo Fisher Scientific). Bio-Rad's CFX96 real-time quantitative PCR (qPCR) instrument was used to observe the expression of HMG-CoA (3-hydroxy-3-methyl-glutaryl-coenzyme A) reductase, a key gene for cholesterol synthesis. In the same way, LDL (low-density lipoprotein) was absorbed into cells, and the expression of LDL receptor (LDLR), which serves to lower blood cholesterol levels, was observed.
LDLR is controlled by the SREBP1a gene. […]

[5] = test system: 3T1-L1 adipocytes; test: glucose uptake (glucose transport) in differentiated adipocytes; details: 1, 10 μM; compared with ginsenosides Rg1, Rg3, Rb1; FIG. 16
[6] = test system: FAS (Fatty acid synthase); test: FAS gene expression in HepG2 (qPCR); details: 24 hours
Protocol: as §1, with “As a positive control, fenofibrate (FF, Sigma), which is used as an antihyperlipidemic drug, was used, and 7 kinds of ginsenosides (GS #01-GS #06, GS #10; 10 μM each) extracted from Ginseng seed were used for the experiment.” left out

Q: How did the “lipase activity inhibitory effect relative to that of the conventional ginsenoside” value ([1]; 10 μM, 1 hour, FIG. 22) turn out when `CC1(C)C(=O)CC[C@@]2(C)C1[C@@H](O[C@H]1OC(CO)[C@H](O)C(O)C1O[C@H]1OC(CO)[C@H](O)C(O)C1O)C[C@]1(C)C2C[C@@H](O)C2C([C@]3(C)CC[C@H](C(C)(C)O)O3)CC[C@]21C` (stereo partly drawn) [GS #10, (20S,24R)-6-O-β-D-glucopyranosyl(1→2)-β-D-glucopyranoside-dammar-3-one-20,24-epoxy-6a,12b,25-triol] was run?
A: ≥ 2 times

Q: What about the “pancreatic lipase activity inhibitory effect” value ([1]; 10 μM, 1 hour, FIG. 22) of the same compound?
A: the best

Q: And the “pancreatic lipase activity inhibition” value ([1]; 1, 10 μM, compared with Rg1, Rg3, Rb1, FIG. 27)?
A: far superior in lipid metabolism inhibitory effect

Q: And the “ACC expression inhibitory effect” value ([2]; 10 μM, HepG2, FIG. 19)?
A: significantly higher expression inhibitory effect

Q: What about the “ACC expression inhibitory effect” value ([2]; 1, 10 μM, compared with Rg1, Rg3, Rb1, FIG. 24) of the same compound?
A: far superior in lipid metabolism inhibitory effect

Q: What about the “SREBP1c expression inhibitory effect” value ([3]; 10 μM, HepG2, FIG. 18) of the same compound?
A: significantly higher expression inhibitory effect

Q: What about the “SREBP1c expression inhibitory effect” value ([3]; 1, 10 μM, compared with Rg1, Rg3, Rb1, FIG. 23) of the same compound?
A: far superior in lipid metabolism inhibitory effect

Q: And the “expression of SREBP1a” value [4]?
A: did not inhibit the expression of SREBP1a but rather tended to increase the expression thereof

Q: What about the glucose transport ability [5] of the same compound?
A: much superior

Q: And the “FAS expression inhibitory effect” value ([6]; 10 μM, HepG2, FIG. 20)?
A: significantly higher expression inhibitory effect

Q: What about the “FAS expression inhibitory effect” value ([6]; 1, 10 μM, compared with Rg1, Rg3, Rb1, FIG. 25) of the same compound?
A: far superior in lipid metabolism inhibitory effect
